In patent US20230165835A1, “METHODS OF TREATING ACUTE LUNG INJURY USING EBSELEN” (SOUND PHARMACEUTICALS INC., priority 2020, published 2023):
“Also recorded” adds a separate entry of the source.

Experiment: Cystic fibrosis trial: clinical chemistry, nephrotoxicity, tolerability
Type: in vivo, human
Details: for Serum Creatinine Mean (SD): baseline 0.77 (0.24); for Blood Urea Nitrogen Mean (SD): baseline 12.81 (4.73); for Bilirubin (Total) / Creatinine / Magnesium / Phosphorus / Albumin / Potassium / Uric Acid / Total Protein / Calcium / BUN / AST/SGOT / ALT/SGPT / GGT / Bicarbonate / Triglyceride / Alkaline Phosphatase / Glucose / Chloride / Total Cholesterol / Sodium / LDH: ITT Population; for Bilirubin (Total): Screening/Baseline 0.46; for Creatinine: Screening/Baseline 0.77; for Magnesium: Screening/Baseline 2.11; for Phosphorus: Screening/Baseline 3.62; for Albumin: Screening/Baseline 3.80; for Potassium: Screening/Baseline 4.33; for Uric Acid: Screening/Baseline 5.63; for Total Protein: Screening/Baseline 7.17; for Calcium: Screening/Baseline 8.84; for BUN: Screening/Baseline 12.81; for AST/SGOT: Screening/Baseline 16.86; for ALT/SGPT: Screening/Baseline 17.05; for GGT: Screening/Baseline 22; for Bicarbonate: Screening/Baseline 26.05; for Triglyceride: Screening/Baseline 78.33; for Alkaline Phosphatase: Screening/Baseline 97.71; for Glucose: Screening/Baseline 101.24; for Chloride: Screening/Baseline 101.95; for Total Cholesterol: Screening/Baseline 126.43; for Sodium: Screening/Baseline 135.71; for LDH: Screening/Baseline 161.48
Protocol: Thirty of 80 participants were enrolled starting in January 2019. They were Cystic fibrosis patients ages 18-70 that had acute pulmonary exacerbation or acute respiratory infections that required treatment with IV tobramycin 10 mg/kg/d for 10-21 days. They were randomized into four groups (1:1:1:1) (0, 200, 400, or 600 BID) and treated for 21 days. There were four follow-up visits for safety (adverse events, spirometry, labs), and two follow-up visits for efficacy (audiometric and vestibular). The primary endpoint was a reduction in cochleotoxic change, and the secondary endpoints was a reduction in tinnitus or vertigo severity.

[1] = Visit 3, end of tobramycin treatment
[2] = Visit 4, two weeks after end of tobramycin treatment
[3] = Visit 5, four weeks after end of tobramycin treatment

With `O=c1c2ccccc2[se]n1-c1ccccc1` [ebselen, 2-phenyl-1,2-benzisoselenazol-3(2H)-one] the “Serum Creatinine Mean (SD)” value (Visit 2, on tobramycin and study treatment, normal 0.49-1.44) was 0.80 (0.22) mg/dl, the “Blood Urea Nitrogen Mean (SD)” value (Visit 2, on tobramycin and study treatment, normal 5-22) was 14.68 (4.80) mg/dl and the “Bilirubin (Total)” value (Visit 2) was 0.41. The Creatinine (Visit 2) was 0.80, the Magnesium (Visit 2) was 2.21 and the Phosphorus (Visit 2) was 3.61. For the same compound, the Albumin (Visit 2) was 3.87, the Potassium (Visit 2) was 4.22 and the “Uric Acid” value (Visit 2) was 4.89. The “Total Protein” value (Visit 2) was 7.17, the Calcium (Visit 2) was 8.86 and the BUN (Visit 2) was 14.68. For the same compound, the AST/SGOT (Visit 2) was 26.45, the ALT/SGPT (Visit 2) was 31.41 and the GGT (Visit 2) was 25. For the same compound, the Bicarbonate (Visit 2) was 26.73, the Triglyceride (Visit 2) was 114.82 and the “Alkaline Phosphatase” value (Visit 2) was 93.41. The Glucose (Visit 2) was 120.95, the Chloride (Visit 2) was 100.68 and the “Total Cholesterol” value (Visit 2) was 139.68. For the same compound, the Sodium (Visit 2) was 136.36, the LDH (Visit 2) was 165.45 and the “Serum Creatinine Mean (SD)” value [1] was 0.78 (0.20) mg/dl. For the same compound, the “Blood Urea Nitrogen Mean (SD)” value [1] was 15.11 (5.56) mg/dl, the “Bilirubin (Total)” value (Visit 3) was 0.45 and the Creatinine (Visit 3) was 0.78. The Magnesium (Visit 3) was 2.19, the Phosphorus (Visit 3) was 3.68 and the Albumin (Visit 3) was 4.05. For the same compound, the Potassium (Visit 3) was 4.25, the “Uric Acid” value (Visit 3) was 5 and the “Total Protein” value (Visit 3) was 7.29. For the same compound, the Calcium (Visit 3) was 9.03, the BUN (Visit 3) was 15.11 and the AST/SGOT (Visit 3) was 27.58. The ALT/SGPT (Visit 3) was 35.63, the GGT (Visit 3) was 28.32 and the Bicarbonate (Visit 3) was 27.42. The Triglyceride (Visit 3) was 114.84, the “Alkaline Phosphatase” value (Visit 3) was 90.16 and the Glucose (Visit 3) was 102.53. For the same compound, the Chloride (Visit 3) was 100.68, the “Total Cholesterol” value (Visit 3) was 151.89 and the Sodium (Visit 3) was 136.05. The LDH (Visit 3) was 166.37, the “Serum Creatinine Mean (SD)” value [2] was 0.78 (0.19) mg/dl and the “Blood Urea Nitrogen Mean (SD)” value [2] was 14.94 (6.66) mg/dl. For the same compound, the “Bilirubin (Total)” value (Visit 4) was 0.49, the Creatinine (Visit 4) was 0.78 and the Magnesium (Visit 4) was 2.06. For the same compound, the Phosphorus (Visit 4) was 3.84, the Albumin (Visit 4) was 4.08 and the Potassium (Visit 4) was 4.16. For the same compound, the “Uric Acid” value (Visit 4) was 5.63, the “Total Protein” value (Visit 4) was 7.49 and the Calcium (Visit 4) was 9.12. It also gave a BUN (Visit 4) of 14.94, an AST/SGOT (Visit 4) of 18.22 and an ALT/SGPT (Visit 4) of 20.44. The GGT (Visit 4) was 23.11, the Bicarbonate (Visit 4) was 25.94 and the Triglyceride (Visit 4) was 96.06. The “Alkaline Phosphatase” value (Visit 4) was 104.50, the Glucose (Visit 4) was 132.56 and the Chloride (Visit 4) was 100.94. For the same compound, the “Total Cholesterol” value (Visit 4) was 134.78, the Sodium (Visit 4) was 135.17 and the LDH (Visit 4) was 158.83. For the same compound, the “Serum Creatinine Mean (SD)” value [3] was 0.81 (0.24) mg/dl, the “Blood Urea Nitrogen Mean (SD)” value [3] was 13.45 (6.49) mg/dl and the “Bilirubin (Total)” value (Visit 5) was 0.46. It also gave a Creatinine (Visit 5) of 0.81, a Magnesium (Visit 5) of 2.16 and a Phosphorus (Visit 5) of 3.72. For the same compound, the Albumin (Visit 5) was 3.98, the Potassium (Visit 5) was 4.25 and the “Uric Acid” value (Visit 5) was 5.62. The “Total Protein” value (Visit 5) was 7.38, the Calcium (Visit 5) was 9.11 and the BUN (Visit 5) was 13.45. The AST/SGOT (Visit 5) was 26.60, the ALT/SGPT (Visit 5) was 22.45 and the GGT (Visit 5) was 20.65. The Bicarbonate (Visit 5) was 26.15, the Triglyceride (Visit 5) was 89.95 and the “Alkaline Phosphatase” value (Visit 5) was 101.70. For the same compound, the Glucose (Visit 5) was 119.05, the Chloride (Visit 5) was 101.80 and the “Total Cholesterol” value (Visit 5) was 137.60. For the same compound, the Sodium (Visit 5) was 136.45, the LDH (Visit 5) was 213.58 and the nephrotoxicity (after IV tobramycin and SPI-1005 or placebo treatment) was “no significant nephrotoxicity; also recorded: lack of nephrotoxicity”. The tolerability (human, in vivo, iv) was “well tolerated”.
